# In patent publication US11014925B2, “Co-crystals of 1-(4-fluoro-phenyl)-4-((6bR,1OaS)-3-methyl-2,3,6b,9,10,10a-hexahydro-1H,7H- pyrido[3′,4′:4,51_pyrrolo [1,2,3-delqcuinoxalin-8-yl)-butan-1-one with nicotinamide or isonicotinamide” (INTRA-CELLULAR THERAPIES, INC., priority 2016, dated 2021):
# Like-named read-outs stand apart in the source and are kept apart here.
# Tests used:
# [1] = Dynamic Vapour Sorption (DVS) hygroscopicity; assay type: physicochemical
# Description: Dynamic Vapour Sorption (DVS): The Dynamic Vapour Sorption studies are performed using a Surface Measurement Systems Ltd. DVS-1 No Video, equipment #2126. The sample is loaded into a balance pan, typically 20-30 mg, and equilibrated at 0% RH. After the material was dried, the RH is increased with 10% per step for 1 hour per increment, ending at 95% RH. After completion of the sorption cycle, the sample was dried using the same method. The software used for data collection is DVSWin v3.01 No Video. Data analysis is performed using DVS Standard Analysis Suite v6.3.0 (Standard).
# [2] = solubility, general statements; assay type: physicochemical; conditions: general statement, solvent not given
# Description: Solubility of free base in various solvents is evaluated, and based on the results of the solubility range, suitable solvents are selected for the co-crystal screen. Co-crystal formation is based on hydrogen bonding and stacking of the molecules, meaning the co-former selection is based on active groups. Grinding is a method to form co-crystals, however the free base itself is an oil/sticky solid and therefore not suitable for this method. The free base and counter ion are added to a solution in a certain ratio to give the chance to form a co-crystal, similar to salt formation. We found the best method is to add a saturated solution of the co-former to that of the free base to find an optimal ratio for co-crystal formation.
# [3] = target: H1 histaminergic receptors (Homo sapiens, UniProt P35367); conditions: cited from earlier work
# Chain of H1 histaminergic receptors (P35367 whole entry): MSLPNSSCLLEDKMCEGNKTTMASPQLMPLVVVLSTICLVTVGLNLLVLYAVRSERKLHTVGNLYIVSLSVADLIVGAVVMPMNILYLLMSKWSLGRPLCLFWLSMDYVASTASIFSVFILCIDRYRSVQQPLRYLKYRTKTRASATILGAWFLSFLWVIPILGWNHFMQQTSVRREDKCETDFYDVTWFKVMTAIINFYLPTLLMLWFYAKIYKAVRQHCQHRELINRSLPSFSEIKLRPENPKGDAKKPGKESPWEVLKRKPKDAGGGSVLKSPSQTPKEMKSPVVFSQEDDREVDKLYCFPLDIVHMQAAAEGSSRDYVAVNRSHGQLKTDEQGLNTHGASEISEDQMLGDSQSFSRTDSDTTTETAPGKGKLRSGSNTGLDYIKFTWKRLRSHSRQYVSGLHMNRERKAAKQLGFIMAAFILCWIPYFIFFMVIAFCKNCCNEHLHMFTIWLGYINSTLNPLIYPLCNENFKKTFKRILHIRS
# muscarinic receptors = conditions: cited from earlier work
# [4] = free base form; in water and in many organic solvents; cited from earlier work
# 5-HT2C receptors = target: T1, 5-HT2C receptors (Homo sapiens, UniProt P28335); conditions: cited from earlier work
# T1 sequence (P28335 33-458): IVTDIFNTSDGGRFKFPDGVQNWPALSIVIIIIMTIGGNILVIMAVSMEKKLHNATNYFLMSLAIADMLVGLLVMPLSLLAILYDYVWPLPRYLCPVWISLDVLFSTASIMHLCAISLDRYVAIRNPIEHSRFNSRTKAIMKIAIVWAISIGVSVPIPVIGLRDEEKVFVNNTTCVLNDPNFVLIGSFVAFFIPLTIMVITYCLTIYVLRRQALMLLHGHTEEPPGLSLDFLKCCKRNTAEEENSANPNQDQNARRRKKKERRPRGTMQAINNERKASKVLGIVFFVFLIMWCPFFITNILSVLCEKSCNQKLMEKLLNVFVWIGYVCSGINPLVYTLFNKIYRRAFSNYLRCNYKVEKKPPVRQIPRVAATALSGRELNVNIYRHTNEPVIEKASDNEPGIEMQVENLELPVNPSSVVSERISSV
# [5] = hydrochloride salt of U.S. Pat. No. 7,183,282; cited from earlier work
# [6] = hydrochloride salt of U.S. Pat. No. 7,183,282; cited from earlier work; remark: listed apart in the source
structure (smiles),measurement,setting,value
CN1CCN2c3c(cccc31)C1CN(CCCC(=O)c3ccc(F)cc3)CCC12.NC(=O)c1ccncc1 (stereo not shown),Hygroscopicity (%),[1],0.2%
same,hygroscopicity (in words),[1],not hygroscopic
same,mass uptake,[1]; at 95 RH %,0.2%
"CN1CCN2c3c(cccc31)[C@@H]1CN(CCCC(=O)c3ccc(F)cc3)CC[C@@H]12 [ITI-007, 1-(4-fluoro-phenyl)-4-((6bR,10aS)-3-methyl-2,3,6b,9,10,10a-hexahydro-1H,7H-pyrido[3′,4′:4,5]pyrrolo[1,2,3-de]quinoxalin-8-yl)-butan-1-one]",solubility,[2],poorly soluble
same,binding,[3],negligible binding
same,binding,muscarinic receptors,negligible binding
same,solubility,[4],poor solubility
same,binding,5-HT2C receptors,negligible binding
CN1CCN2c3c(cccc31)C1CN(CCCC(=O)c3ccc(F)cc3)CCC12.Cl (stereo not shown) [hydrochloride salt form of ITI-007],stability,[5],poor stability
same,hygroscopicity,[6],hygroscopic
